Results published in PubChem BioAssay (NCI).
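Interpolation was linear, between the two tested concentrations surrounding the appropriate level; five concentrations were tested over 48 hours in 96-well plates. TGI: concentration producing complete growth inhibition.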

Tests used:
Test in all cases: growth of human tumour cells (NCI), 48 h
[1] = system: UO-31 renal
[2] = system: EKVX NSCLC
[3] = system: MCF7 breast
[4] = system: A549 NSCLC
[5] = system: NCI/ADR-RES ovarian
[6] = system: PC-3 prostate
[7] = system: UACC-62 melanoma
[8] = system: HS 578T breast
[9] = system: BT-549 breast
[10] = system: ACHN renal
[11] = system: COLO 205 colon
[12] = system: A498 renal
[13] = system: IGROV1 ovarian
[14] = system: SF-268 CNS
[15] = system: NCI-H23 lung
[16] = system: CCRF-CEM leukemia
[17] = system: K-562 leukemia
[18] = system: KM12 colon
[19] = system: HCT-15 colon
[20] = system: 786-0 renal
[21] = system: HT29 colon
[22] = system: T-47D breast
[23] = system: CAKI-1 renal
[24] = system: MOLT-4 leukemia
[25] = system: RPMI-8226 leukemia
[26] = system: U251 CNS
[27] = system: MALME-3M melanoma
[28] = system: HOP-62 NSCLC
[29] = system: SK-MEL-2 melanoma
[30] = system: TK-10 renal
[31] = system: SNB-75 CNS
[32] = system: SK-MEL-5 melanoma
[33] = system: HCC-2998 colon
[34] = system: OVCAR-4 ovarian
[35] = system: OVCAR-5 ovarian
[36] = system: SW-620 colon
[37] = system: HCT-116 colon
[38] = system: MDA-N
[39] = system: M14 melanoma
[40] = system: UACC-257 melanoma
[41] = system: SF-295 CNS
[42] = system: NCI-H522 lung
[43] = system: NCI-H460 lung
[44] = system: DU-145 prostate
[45] = system: OVCAR-3 ovarian
[46] = system: SNB-19 CNS
[47] = system: MDA-MB-231 breast
[48] = system: LOX IMVI melanoma
[49] = system: SK-MEL-28 melanoma
[50] = system: SN12C renal
[51] = system: MDA-MB-435
[52] = system: SK-OV-3 ovarian
[53] = system: SF-539 CNS
[54] = system: NCI-H226 lung
[55] = system: SR leukemia
[56] = system: RXF 393 renal
[57] = system: HOP-92 NSCLC
[58] = system: OVCAR-8 ovarian
[59] = system: HL-60(TB) leukemia

With `COC(O)C(=O)c1ccc2c(c1)CC1(C2)Cc2cc3c(cc2C1=O)CCC3` (configuration not stated) the TGI [1] was 30.5 µM, the TGI [2] was 45.7 µM and the TGI [3] was 39.6 µM. The TGI [4] was 47.4 µM, the TGI [5] was > 100 µM and the TGI [6] was 30.8 µM. For the same molecule, the TGI [7] was 34 µM, the TGI [8] was 60.7 µM and the TGI [9] was 31.8 µM. For the same molecule, the TGI [10] was 30.6 µM, the TGI [11] was 47.2 µM and the TGI [12] was 37.1 µM. It also gave a TGI [13] of 32.8 µM, a TGI [14] of 43.3 µM and a TGI [15] of 56.2 µM. For the same molecule, the TGI [16] was 48 µM, the TGI [17] was 21.8 µM and the TGI [18] was 43.9 µM. It also gave a TGI [19] of 58 µM, a TGI [20] of 31.4 µM and a TGI [21] of 42.3 µM. For the same molecule, the TGI [22] was 48.1 µM, the TGI [23] was 31.2 µM and the TGI [24] was 64 µM. The TGI [25] was 32.7 µM, the TGI [26] was 35.5 µM and the TGI [27] was 36.1 µM. For the same molecule, the TGI [28] was 38.8 µM, the TGI [29] was 47.1 µM and the TGI [30] was 36.2 µM. It also gave a TGI [31] of 37.5 µM, a TGI [32] of 29.4 µM and a TGI [33] of 38.6 µM. For the same molecule, the TGI [34] was 30.4 µM, the TGI [35] was 52.3 µM and the TGI [36] was 30.3 µM. It also gave a TGI [37] of 34.8 µM, a TGI [38] of 42.3 µM and a TGI [39] of 35.9 µM. It also gave a TGI [40] of 39.7 µM, a TGI [41] of 44.1 µM and a TGI [42] of 35.7 µM. For the same molecule, the TGI [43] was 70.6 µM, the TGI [44] was 31.1 µM and the TGI [45] was 34.5 µM. The TGI [46] was 34.5 µM, the TGI [47] was 73.3 µM and the TGI [48] was 10.1 µM. For the same molecule, the TGI [49] was 29.6 µM, the TGI [50] was 29.6 µM and the TGI [51] was 35.3 µM. For the same molecule, the TGI [52] was 31.9 µM, the TGI [53] was 35.4 µM and the TGI [54] was 43.6 µM.
For `O=C1c2ccccc2-c2nnc3c(c21)-c1ccccc1C3`, the TGI [1] was > 100 µM, the TGI [2] was > 100 µM and the TGI [55] was > 100 µM. For the same molecule, the TGI [3] was > 100 µM, the TGI [4] was > 100 µM and the TGI [5] was > 100 µM. For the same molecule, the TGI [6] was > 100 µM, the TGI [7] was > 100 µM and the TGI [8] was > 100 µM. For the same molecule, the TGI [10] was 84.6 µM, the TGI [11] was > 100 µM and the TGI [14] was > 100 µM. The TGI [15] was > 100 µM, the TGI [16] was > 100 µM and the TGI [56] was > 100 µM. For the same molecule, the TGI [18] was > 100 µM, the TGI [19] was > 100 µM and the TGI [20] was > 100 µM. The TGI [21] was > 100 µM, the TGI [22] was > 100 µM and the TGI [23] was > 100 µM. The TGI [24] was 80.8 µM, the TGI [25] was > 100 µM and the TGI [26] was > 100 µM. For the same molecule, the TGI [27] was > 100 µM, the TGI [29] was > 100 µM and the TGI [57] was > 100 µM. The TGI [31] was > 100 µM, the TGI [32] was > 100 µM and the TGI [35] was > 100 µM. For the same molecule, the TGI [36] was > 100 µM, the TGI [37] was > 100 µM and the TGI [38] was > 100 µM. For the same molecule, the TGI [39] was > 100 µM, the TGI [40] was > 100 µM and the TGI [41] was > 100 µM. The TGI [42] was > 100 µM, the TGI [43] was > 100 µM and the TGI [44] was > 100 µM. For the same molecule, the TGI [46] was > 100 µM, the TGI [47] was > 100 µM and the TGI [50] was > 100 µM. The TGI [58] was > 100 µM, the TGI [51] was > 100 µM and the TGI [59] was > 100 µM. For the same molecule, the TGI [52] was > 100 µM, the TGI [53] was > 100 µM and the TGI [54] was > 100 µM.
In the case of `[N-]=[N+]=NC(c1cn(C2CC(O)C(CO)O2)c(=O)[nH]c1=O)C(Cl)I` (configuration not stated), the TGI [1] is reported as > 100 µM, the TGI [2] is reported as > 100 µM and the TGI [3] is reported as > 100 µM. For the same molecule, the TGI [4] was > 100 µM, the TGI [5] was > 100 µM and the TGI [7] was > 100 µM. For the same molecule, the TGI [8] was > 100 µM, the TGI [9] was > 100 µM and the TGI [10] was > 100 µM. The TGI [11] was > 100 µM, the TGI [12] was > 100 µM and the TGI [13] was > 100 µM. For the same molecule, the TGI [14] was > 100 µM, the TGI [15] was > 100 µM and the TGI [56] was > 100 µM. The TGI [18] was > 100 µM, the TGI [19] was > 100 µM and the TGI [20] was > 100 µM. The TGI [21] was > 100 µM, the TGI [22] was > 100 µM and the TGI [24] was > 100 µM. For the same molecule, the TGI [25] was > 100 µM, the TGI [26] was > 100 µM and the TGI [28] was > 100 µM. For the same molecule, the TGI [29] was > 100 µM, the TGI [30] was > 100 µM and the TGI [31] was > 100 µM. The TGI [32] was > 100 µM, the TGI [33] was > 100 µM and the TGI [34] was > 100 µM. The TGI [35] was > 100 µM, the TGI [36] was > 100 µM and the TGI [37] was > 100 µM. For the same molecule, the TGI [38] was > 100 µM, the TGI [39] was > 100 µM and the TGI [40] was > 100 µM. For the same molecule, the TGI [41] was > 100 µM, the TGI [43] was > 100 µM and the TGI [44] was > 100 µM. For the same molecule, the TGI [45] was > 100 µM, the TGI [46] was > 100 µM and the TGI [47] was > 100 µM. For the same molecule, the TGI [49] was > 100 µM, the TGI [50] was > 100 µM and the TGI [58] was > 100 µM. For the same molecule, the TGI [51] was > 100 µM, the TGI [52] was > 100 µM and the TGI [53] was > 100 µM. For the same molecule, the TGI [54] was > 100 µM.
For `CC1SCc2nc3ccccc3n21` (configuration not stated), the TGI [1] was > 100 µM, the TGI [2] was > 100 µM and the TGI [3] was > 100 µM. For the same molecule, the TGI [4] was > 100 µM, the TGI [5] was > 100 µM and the TGI [6] was > 100 µM. The TGI [7] was > 100 µM, the TGI [8] was > 100 µM and the TGI [10] was > 100 µM. The TGI [11] was > 100 µM, the TGI [12] was > 100 µM and the TGI [13] was > 100 µM. For the same molecule, the TGI [14] was > 100 µM, the TGI [15] was > 100 µM and the TGI [16] was > 100 µM. For the same molecule, the TGI [56] was > 100 µM, the TGI [17] was > 100 µM and the TGI [18] was > 100 µM. For the same molecule, the TGI [19] was > 100 µM, the TGI [20] was > 100 µM and the TGI [21] was > 100 µM. For the same molecule, the TGI [22] was > 100 µM, the TGI [23] was > 100 µM and the TGI [24] was > 100 µM. For the same molecule, the TGI [25] was > 100 µM, the TGI [26] was > 100 µM and the TGI [27] was > 100 µM. The TGI [28] was > 100 µM, the TGI [29] was > 100 µM and the TGI [57] was > 100 µM. The TGI [30] was > 100 µM, the TGI [31] was 83.3 µM and the TGI [32] was > 100 µM. The TGI [33] was > 100 µM, the TGI [34] was > 100 µM and the TGI [35] was > 100 µM. For the same molecule, the TGI [37] was > 100 µM, the TGI [38] was > 100 µM and the TGI [39] was > 100 µM. For the same molecule, the TGI [40] was > 100 µM, the TGI [41] was > 100 µM and the TGI [42] was > 100 µM. The TGI [43] was > 100 µM, the TGI [44] was > 100 µM and the TGI [45] was > 100 µM. The TGI [46] was > 100 µM, the TGI [47] was > 100 µM and the TGI [48] was > 100 µM. The TGI [49] was > 100 µM, the TGI [50] was > 100 µM and the TGI [58] was > 100 µM. The TGI [51] was > 100 µM, the TGI [59] was > 100 µM and the TGI [52] was > 100 µM. For the same molecule, the TGI [53] was > 100 µM and the TGI [54] was > 100 µM.
